Experimental findings from patent publication US12486253B2, “Therapeutics for the degradation of mutant BRAF” (C4 THERAPEUTICS, INC., priority 2021, dated 2025) are described below.

A word on the pIC50: it is the IC50 on a negative log10 scale, so that one unit is a factor of ten. As usually defined, the GI50 is the concentration at which growth is held to half of that of the control. A higher GI50 goes with less potent growth inhibition.

Molecules are shown by their SMILES. pIC50: −log10 of the molar value.

Assay [1] has as its system phospho-ERK (T202/Y204). The experiment in a line: HTRF phospho-ERK (T202/Y204) assay in A375-NRAS^Q61K cells. The format is cell-based. As to conditions: 24 hrs, mean of at least n = 3, read-out: pERK IC50. The text has this: A375-NRAS^Q61K cells (harboring BRAF homozygous V600E mutation and NRAS homozygous Q61K mutation) were purchased from ATCC. DMEM Medium without phenol red and supplemented with L-glutamine was purchased from Corning (Corning, NY, USA). Advanced phospho-ERK (Thr202/Tyr204) HTRF assay kits were purchased from Cisbio (Bedford, MA, USA). Cell culture flasks and 384-well microplates were acquired from VWR (Radnor, PA, USA) or Corning (Corning, NY, USA).
(§1) Degradation of activated phospho-ERK (T202/Y204) protein was determined based on quantification of FRET signal using the Advanced phospho-ERK (T202/Y204) HTRF assay kit. Test compounds were added to the 384-well plate from a top concentration of 10 μM with 11 points, half log titration in duplicates. A375-NRAS^Q61K cells were added into 384-well plates at a cell density of 2000 cells per well. The plates were kept at 37° C. with 5% CO2 for 24 hours. Cells treated in the absence of the test compound were the negative control. Positive control was set by wells containing all reagents but no cells. FRET signal was acquired on EnVision™ Multilabel Reader (PerkinElmer, Santa Clara, CA, USA).
In general terms: TR-FRET usually uses a lanthanide donor and a delayed reading to cut background.

Assay [2] relates to H1666 cells endogenously expressing the class III BRAF mutation G466V. The experiment in a line: Cellular growth over time in H1666 cells. The format is cell-based.
The next assay relates to A375-NRAS^Q61K cells. In words: CellTiter-Glo growth inhibition assay, A375-NRAS^Q61K cells. The format is cell-based. The following applies: 96 hr, mean of at least n = 3. As to the method:
A375-NRAS^Q61K cells (harboring BRAF homozygous V600E mutation and NRAS homozygous Q61K mutation) were purchased from ATCC. DMEM Medium (without phenol red and supplemented with L-glutamine) was purchased from Corning (Corning, NY, USA). CellTiter-Glo® 2.0 Assay was purchased from Promega (Madison, WI, USA). Cell culture flasks and 384-well microplates were acquired from VWR (Radnor, PA, USA) or Corning (Corning, NY, USA).
A375-NRAS^Q61K cell viability was determined based on quantification of ATP using CellTiter-Glo® 2.0 luminescent Assay kit, which signals the presence of metabolically-active cells. Briefly, test compound was added to 384-well plates at a top concentration of 10 μM with 14 points, half log titration in duplicates. A375-NRAS^Q61K cells were seeded into the 384-well plates in DMEM medium containing 10% FBS at a cell density of 250 cells per well. Cells treated in the absence of the test compound were the negative control, normalized to 100% viability, and cells treated in the absence of CellTiter-Glo® 2.0 were the positive control, normalized to 0% viability. A375 cells were incubated at 37° C. with 5% CO2 for 96 hr. CellTiter-Glo reagent was then added to the cells and Luminescence was acquired on EnVision™ Multilabel Reader (PerkinElmer, Santa Clara, CA, USA).
In general terms: ATP-based viability assays read luminescence as a measure of living cells.

For the next assay, the target named is WT BRAF (Homo sapiens, UniProt P15056). The experiment in a line: Western blot of WT BRAF and pERK levels in HCT-116 cells. The following applies: HCT-116 cells with endogenous WT BRAF. The format is cell-based. In general terms: In western blotting, separated proteins are transferred to a membrane and probed.
Sequence of WT BRAF (P15056 whole entry): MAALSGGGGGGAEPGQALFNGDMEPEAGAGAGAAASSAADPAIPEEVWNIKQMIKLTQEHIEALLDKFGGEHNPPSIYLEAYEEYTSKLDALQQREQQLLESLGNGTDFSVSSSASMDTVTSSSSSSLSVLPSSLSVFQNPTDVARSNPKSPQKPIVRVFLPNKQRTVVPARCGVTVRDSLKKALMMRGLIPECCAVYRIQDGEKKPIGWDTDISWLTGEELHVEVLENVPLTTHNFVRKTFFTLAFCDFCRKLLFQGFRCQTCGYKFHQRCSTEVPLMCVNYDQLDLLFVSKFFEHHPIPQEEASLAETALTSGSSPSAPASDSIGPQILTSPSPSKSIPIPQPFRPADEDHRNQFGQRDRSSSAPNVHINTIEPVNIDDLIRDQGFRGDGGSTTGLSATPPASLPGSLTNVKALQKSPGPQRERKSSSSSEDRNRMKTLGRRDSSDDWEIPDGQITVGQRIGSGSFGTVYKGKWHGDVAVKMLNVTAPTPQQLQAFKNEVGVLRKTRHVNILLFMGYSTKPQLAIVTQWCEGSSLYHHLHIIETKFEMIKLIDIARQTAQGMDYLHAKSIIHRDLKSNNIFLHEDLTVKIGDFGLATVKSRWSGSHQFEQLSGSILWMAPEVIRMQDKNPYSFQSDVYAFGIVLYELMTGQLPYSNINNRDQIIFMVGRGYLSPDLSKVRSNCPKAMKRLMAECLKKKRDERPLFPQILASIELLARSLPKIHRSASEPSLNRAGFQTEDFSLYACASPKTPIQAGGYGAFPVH
The next assay addresses T1, GSPT1 (Homo sapiens, UniProt P15170).
T1 construct: endogenously expressing GSPT1 with HiBiT fusion tag via CRISPR; endogenous in cells; host or cells: HEK293T.114
The experiment in a line: GSPT1 protein levels after treatment. Type of assay: cell-based. As to conditions: various concentrations.

For another assay, the system named is A375 tumors. In words: In vivo efficacy in A375 xenograft tumors. Details: species or system BALB/c nude mice. As to conditions: mice. As to the method:
The efficacy study was conducted in female BALB/c nude mice bearing A375 tumors. Female BALB/c nude mice were inoculated subcutaneously in the right flank with A375 tumor cells (5×10^6) in 0.2 mL of PBS supplemented with Matrigel (at a 1:1 ratio) for tumor development. Tumor volume was measured twice weekly in two dimensions using calipers, and volume (mm^3) was calculated using the formula: V=0.5 a×b^2 where a and b are the long and short diameters of the tumor in mm, respectively. Once the tumors reached an average tumor volume of 246 mm^3 (16 days after implantation), the animals were divided randomly into groups of 6, stratified to result in about equal average tumor sizes in each treatment group and treatment began on Day 0.
All agents were administered to mice bearing A375 tumors orally (PO), daily (QD; encorafenib), twice a day (BID) or three times a day (TID) for Compound 157, for 21 or 35 days. encorafenib was dosed at 35 mg/kg and Compound 157 at 0.1, 0.3, 1, 3 or 10 mg/kg twice a day or 2 mg/kg three times a day. Compound 157 was formulated in 20% PEG400+80% (25% SBECD). Body weight and MTV were measured on a 2× weekly schedule and reported as Mean±SEM.

The test system of assay [3] is phospho-ERK (T202/Y204). In words: HTRF phospho-ERK (T202/Y204) inhibition assay in A375 cells. Type of assay: cell-based. As to conditions: Homo sapiens, A-375, 24 hrs, mean of at least n = 3, read-out: pERK IC50. As to the method:
A375 (harboring BRAF homozygous V600E mutation) were purchased from ATCC. DMEM Medium without phenol red and supplemented with L-glutamine was purchased from Corning (Corning, NY, USA). Advanced phospho-ERK (Thr202/Tyr204) HTRF assay kits were purchased from Cisbio (Bedford, MA, USA). Cell culture flasks and 384-well microplates were acquired from VWR (Radnor, PA, USA) or Corning (Corning, NY, USA).
as §1, with “A375” for “A375-NRAS^Q61K”, “8000” for “2000”, “well, respectively.” for “well.”

T1 sequence (P15170 whole entry, the tested form may be a part): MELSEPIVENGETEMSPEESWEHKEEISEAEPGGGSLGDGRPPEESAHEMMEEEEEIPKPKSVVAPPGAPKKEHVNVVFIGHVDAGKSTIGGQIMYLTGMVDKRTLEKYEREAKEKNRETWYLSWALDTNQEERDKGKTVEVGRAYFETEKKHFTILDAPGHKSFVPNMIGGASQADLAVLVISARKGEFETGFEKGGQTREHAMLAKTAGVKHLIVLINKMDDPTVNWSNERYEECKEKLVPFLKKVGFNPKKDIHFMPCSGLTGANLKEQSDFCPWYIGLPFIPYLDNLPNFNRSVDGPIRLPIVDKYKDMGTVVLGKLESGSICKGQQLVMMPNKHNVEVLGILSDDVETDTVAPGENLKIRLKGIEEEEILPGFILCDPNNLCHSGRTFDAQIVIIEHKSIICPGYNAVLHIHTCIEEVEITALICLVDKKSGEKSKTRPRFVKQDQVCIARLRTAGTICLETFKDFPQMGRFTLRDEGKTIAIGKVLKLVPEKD

Regarding `CCN(C)S(=O)(=O)Nc1ccc(F)c(Oc2ccc3ncn([C@H]4COC5(CCN(C(=O)CC6(O)CCN(c7cc8c(cc7F)c(N7CCC(=O)NC7=O)nn8C)CC6)CC5)C4)c(=O)c3c2)c1C#N` [Compound 157, (3R)-3-[6-[2-cyano-3-[[ethyl(methyl)sulfamoyl]amino]-6-fluorophenoxy]-4-oxoquinazolin-3-yl]-8-[2-[1-[3-(2,4-dioxo-1,3-diazinan-1-yl)-5-fluoro-1-methylindazol-6-yl]-4-hydroxypiperidin-4-yl]acetyl]-1-oxa-8-azaspiro[4.5]decane], the values for the negative logarithm of the IC50 (pIC50) in the assay with phospho-ERK (T202/Y204) [1] and in the assay with phospho-ERK (T202/Y204) [3] were 8.11 and 8.49, respectively. For the same molecule, in assay [2] (G466V), the cell growth inhibition entry is “effective”. This molecule came in with a confluency in assay [2] (over the course of 7 days) of at most 30%. Also, in assay [2] (with 1 nM trametinib), the “cell growth, in combination with trametinib” value is “failed to expand”. Also, the concentration for 50% growth inhibition (GI50) with A375-NRAS^Q61K cells came out at 55 nM. Further, the “WT BRAF levels and phosphorylation of ERK” value on WT BRAF is “minimal impact”. The GSPT1 protein levels entry at GSPT1 was “steady”. The “Tumor growth compared to vehicle-treated tumors” value is given as “potent tumor growth inhibition” with A375 tumors (1 mg/kg PO BID), “potent tumor growth inhibition” with A375 tumors (2 mg/kg PO TID), “potent tumor growth inhibition” with A375 tumors (3 mg/kg PO BID) and “robust tumor growth regression” in the assay with A375 tumors (10 mg/kg PO BID).
